Measured values: patent US5498609A, “Benzoazepinyl compounds as oxytocin and vasopressin antagonists” (Otsuka Pharmaceutical Company, Limited, priority 1992, dated 1996)

Columns and labels:
V2 receptor = biological target: T1, V2 receptor (Rattus norvegicus, UniProt Q00788); assay: biochemical; conditions: rat kidney plasma membrane, [3H]-Arg-vasopressin, 4° C., pH 8.0, read-out: IC50 in V2 receptor binding assay
T1 construct: Using rat kidney plasma membrane preparations; from tissue; host or cells: rat kidney plasma membrane
Description: Experiment 2: V2 receptor binding assay
Using rat kidney plasma membrane preparations prepared according to O. Hechter's method [cf: J. Bio. Chem., 253, 3211 (1978)], the plasma membrane (100000 dpm, 4×10^-10 M) of [^3 H]-Arg-vasopressin and a test compound (0.6 mg, 10^-10 to 10^-5 M) are incubated at 4° C. for 3 hours in 100 mM Tris-HCl buffer (pH: 8.0) (250 μl) containing 5 mM MgCl2, 1 mM EDTA and 0.1% BSA. After incubation, the mixture is filtered using the glass filter (GF/F) so as to separate the membrane preparation binding with vasopressin and then washed twice with the buffer (each 5 ml). This glass filter is taken out and mixed with liquid scintillation cocktail. The amount of [^3 H]-vasopressin binding with the membrane is measured by liquid scintillation counter and the rate of the inhibitory effect of the test compound is estimated according to the following equation. [formula] C1 : The amount of [^3 H]-vasopressin binding with the membrane in the presence of the test compound (known amount)
(§1) C0 : The amount of [^3 H]-vasopressin binding with the membrane in the absence of the test compound
(§2) B1 : The amount of [^3 H]-vasopressin binding with the membrane in the presence of the excess amount of vasopressin (10^-6 M)
(§3) The results are expressed as IC50 value, which is the concentration of the test compound required to achieve the inhibitory effect in the rate of 50%.

Oxytocin receptor = biological target: T2, Oxytocin receptor (Rattus norvegicus, UniProt P70536); assay: Oxytocin receptor binding assay ([3H]-oxytocin, rat uterine muscle membrane); conditions: for IC50: 25° C., one hour, pH 8.0
T2 construct: from tissue; host or cells: rat uterine muscle membrane (diethylstilbestrol-treated)
T2 sequence (P70536 1-388): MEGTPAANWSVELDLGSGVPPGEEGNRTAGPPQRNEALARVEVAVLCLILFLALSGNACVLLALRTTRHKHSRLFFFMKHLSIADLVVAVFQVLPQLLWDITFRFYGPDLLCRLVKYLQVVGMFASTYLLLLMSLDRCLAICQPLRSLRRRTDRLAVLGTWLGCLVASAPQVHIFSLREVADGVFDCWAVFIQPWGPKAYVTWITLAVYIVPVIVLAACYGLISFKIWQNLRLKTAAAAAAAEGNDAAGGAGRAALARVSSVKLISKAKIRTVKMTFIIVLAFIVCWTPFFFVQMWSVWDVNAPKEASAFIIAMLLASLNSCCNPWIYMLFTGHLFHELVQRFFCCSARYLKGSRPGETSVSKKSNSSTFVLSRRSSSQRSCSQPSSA
Description: Experiment 3: Oxytocin receptor binding assay
According to the method of W. Y. Chan et al. [Endocrinology, 126, 2095-2101 (1990)], uterine muscle is taken out from a rat which has previously been injected subcutaneously with diethylstilbestrol the day before, and homogenized, which is used as a membrane preparation. The membrane preparation (0.2 mg), [^3 H]-oxytocin (100000 dpm, 10^-9 M), a test compound (10^-9 -10^-5 M) are incubated at 25° C. for one hour in 100 mM Tris-HCl buffer (pH 8.0, 250 μl) containing a 5 mM MgCl2, 1 mM MEDTA and 0.1% BSA. The mixture is filtered through the glass filter (GF/B) so as to separate the membrane preparation binding with [^3 H]-oxytocin, and then, washed twice with the buffer (5 ml). This glass filter is put into a vial and mixed with Aquasole (liquid scintillation cocktail). The amount of [^3 H]-oxytocin binding with the membrane is measured by liquid scintillation counter. The rate of the inhibitory effect of the test compound is estimated according to the following equation.
Inhibitory Rate (%)=100-[(C1 -B)/(C0 -B)]×100
C1 : The amount of [^3 H]-oxytocin binding with the membrane in the presence of a test compound (known amount)
C0 : The amount of [^3 H]-oxytocin binding with the membrane in the absence of a test compound
B: The amount of [^3 H]-oxytocin binding with the membrane in the presence of the excess amount of oxytocin (5×10^-6 M).
The results are expressed as IC50 value, which is the concentration of the test compound required to achieve the inhibitory rate in the rate of 50%.

V1 receptor = V1 receptor (Rattus norvegicus, UniProt P30560); assay: biochemical; conditions: rat liver plasma membrane, [3H]-Arg-vasopressin, 37° C., 10 minutes, pH 8.0; read-out: IC50 in V1 receptor binding assay
Description: Experiment 1: V1 receptor binding assay
Using rat liver plasma membrane preparations prepared according to Ichihara's method [cf: Akira Ichihara, J. Bio. Chem., 258, 9283 (1983)], the plasma membrane (50000 dpm, 2×10^-10 M) of [^3 H]-Arg-vasopressin and a test compound (60 μg, 10^-8 to 10^-4 M) are incubated at 37° C. for 10 minutes in 100 mM Tris-HCl buffer (pH: 8.0) (250 μl) containing 5 mM MgCl2, 1 mM EDTA and 0.1% BSA. After incubation, the mixture is filtered three times using the glass filter (GF/F) so as to separate the membrane preparation binding with vasopressin and then washed with the buffer (5 ml). This glass filter is taken out and mixed with liquid scintillation cocktail. The amount of [^3 H]-vasopressin binding with the membrane is measured by liquid scintillation counter and the rate of the inhibitory effect of the test compound is estimated according to the following equation. [formula] C1 : The amount of [^3 H]-vasopressin binding with the membrane in the presence of the test compound (known amount)
as §1, §2, §3

T1 sequence (Q00788 whole entry): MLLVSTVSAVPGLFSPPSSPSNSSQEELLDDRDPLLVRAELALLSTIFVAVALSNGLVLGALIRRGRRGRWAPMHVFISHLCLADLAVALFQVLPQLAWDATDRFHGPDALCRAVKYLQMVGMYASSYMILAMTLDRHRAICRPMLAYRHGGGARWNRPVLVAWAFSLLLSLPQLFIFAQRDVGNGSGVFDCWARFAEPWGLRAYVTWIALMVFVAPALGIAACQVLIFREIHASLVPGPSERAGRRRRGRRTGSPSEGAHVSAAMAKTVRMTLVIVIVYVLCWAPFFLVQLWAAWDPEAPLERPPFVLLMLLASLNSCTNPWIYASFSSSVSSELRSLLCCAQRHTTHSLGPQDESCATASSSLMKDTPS
Sequence of V1 receptor (P30560 whole entry): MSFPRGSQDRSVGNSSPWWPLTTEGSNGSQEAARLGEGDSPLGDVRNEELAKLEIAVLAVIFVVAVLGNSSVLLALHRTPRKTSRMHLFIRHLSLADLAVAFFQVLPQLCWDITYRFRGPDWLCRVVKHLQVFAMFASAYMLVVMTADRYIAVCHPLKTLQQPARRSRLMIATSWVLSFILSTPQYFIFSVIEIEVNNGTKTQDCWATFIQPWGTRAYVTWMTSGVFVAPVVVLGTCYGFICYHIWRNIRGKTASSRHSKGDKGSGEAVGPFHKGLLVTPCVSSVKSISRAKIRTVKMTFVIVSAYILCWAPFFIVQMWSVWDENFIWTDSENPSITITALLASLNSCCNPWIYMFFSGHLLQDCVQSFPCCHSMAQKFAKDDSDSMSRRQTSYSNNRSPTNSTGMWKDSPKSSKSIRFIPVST

| Compound | IC50 (V2 receptor) [µM] | IC50 (Oxytocin receptor) [µM] | IC50 (V1 receptor) [µM] | inhibition at 10 µM (Oxytocin receptor; 10^-5 M test compound, read-out: Inhibitory Rate (%) at 10^-5 M (oxytocin receptor binding assay)) [%] |
| --- | --- | --- | --- | --- |
| CC(=O)OCCC1CCCN(C(=O)c2ccc(NC(=O)c3ccccc3Cl)nc2)c2ccc(Cl)cc21 (stereo not drawn) [Compound of Ex. 122, 7-chloro-5-(2-acetyloxyethyl)-1-[6-(2-chlorobenzoylamino)nicotinoyl]-2,3,4,5-tetrahydro-1H-benzazepine] | 0.003 | 0.64 | 0.015 |  |
| C=CCOC1CCCN(C(=O)c2ccc(NC(=O)c3ccccc3Br)nc2)c2ccc(Cl)cc21 (stereo not drawn) [Compound of Ex. 76] | 0.008 | 1.5 | 0.027 |  |
| Cc1ccccc1C(=O)Nc1ccc(C(=O)N2CCCC(OCCN(C)C)c3cc(Cl)ccc32)cn1 (stereo not drawn) [Compound of Ex. 37, 7-chloro-5-(2-dimethylaminoethoxy)-1-[6-(2-methylbenzoylamino)nicotinoyl]-2,3,4,5-tetrahydro-1H-benzazepine] | 0.005 | 1.14 | 0.011 |  |
| CCNC(=O)CC1CCCN(C(=O)c2ccc(NC(=O)c3ccccc3Cl)nc2)c2ccc(Cl)cc21 (stereo not drawn) [Compound of Ex. 112] | 0.003 | 0.28 | 0.009 |  |
| Cc1ccccc1C(=O)Nc1ccc(C(=O)N2CCCN(C)c3cc(Cl)ccc32)cn1 [Compound of Ex. 52] | 0.022 | 1.6 | 0.051 |  |
| O=C(Nc1ccc(C(=O)N2CCCCc3cc(Cl)ccc32)cn1)c1ccccc1Cl [Compound of Ex. 44] | 0.011 | 0.307 | 0.008 |  |
| O=C(Nc1ccc(C(=O)N2CCCCc3cc(Cl)ccc32)cn1)c1ccccc1Br [Compound of Ex. 45] | 0.007 | 0.26 | 0.005 |  |
| Cc1ccccc1C(=O)Nc1ccc(C(=O)N2CCCC(CCO)c3cc(Cl)ccc32)cn1 (stereo not drawn) [Compound of Ex. 123] | 0.0032 | 0.32 | 0.02 |  |
| Cc1ccccc1C(=O)Nc1ccc(C(=O)N2CCCCc3cc(Cl)ccc32)cn1 [Compound of Ex. 43] | 0.01 | 0.29 | 0.013 |  |
| O=C(Nc1ccc(C(=O)N2CCCC(CC(=O)N3CCCC3)c3cc(Cl)ccc32)cn1)c1ccccc1Cl (stereo not drawn) [Compound of Ex. 114] | 0.003 | 0.32 | 0.011 |  |
| Cc1ccccc1C(=O)Nc1ccc(C(=O)N2CCCC(CC(N)=O)c3cc(Cl)ccc32)cn1 (stereo not drawn) [Compound of Ex. 40] | 0.009 | 0.74 | 0.044 |  |
| CN1CCN(C(=O)COc2ccccc2C(=O)Nc2ccc(C(=O)N3CCCCc4cc(Cl)ccc43)cn2)CC1 [Compound of Ex. 88, 7-chloro-1-{6-[2-(4-methyl-1-piperazinyl)-carbonylmethoxybenzoylamino]nicotinoyl}-2,3,4,5-tetrahydro-1H-benzazepine] | 0.2 | 4.5 | 0.026 |  |
| Cc1ccccc1C(=O)Nc1ccc(C(=O)N2CCCC(CC(=O)N3CCCCC3)c3cc(Cl)ccc32)cn1 (stereo not drawn) [Compound of Ex. 104] | 0.024 | 0.51 | 0.038 |  |
| O=C(Nc1ccc(C(=O)N2CCCC(CCN3CCCC3)c3cc(Cl)ccc32)cn1)c1ccccc1Cl (stereo not drawn) [Compound of Ex. 126, 7-chloro-5-[2-(1-pyrrolidinyl)ethyl]-1-[6-(2-chlorobenzoylamino)nicotinoyl]-2,3,4,5-tetrahydro-1H-benzazepine] | 0.0053 | 1.32 | 0.019 |  |
| CC(=O)NC1CCN(CCOc2ccccc2C(=O)Nc2ccc(C(=O)N3CCCCc4cc(Cl)ccc43)cn2)CC1 [Compound of Ex. 92] | 0.38 |  | 0.06 | 38 |
